Columns and labels:
Format in all cases: cell-based
[1] = tested on: embryonic stem cells (ES-D3); assay: Differentiation of embryonic stem cell aggregates into contracting muscle cells by dimethylsulfoxide induction; details: 1% (by volume) dimethylsulfoxide in DMEM plus 10% horse serum, aggregates cultured 5 days in multi-well dishes
Description: Undifferentiated embryonic stem cells (ES-D3, purchased from the American Type Culture Collection as ATCC catalog no. ATCC CRL 1934) are maintained in supplemented Dulbecco's modified Minimal Essential Medium as described in Example 1. The embryonic stem cells then are trypsinized and washed free of LIF and placed in 1% (by volume) dimethylsulfoxide in DMEM plus 10% horse serum. Two days after the addition of dimethylsulfoxide and plating of cells in Petri dishes to form aggregates, the aggregates are collected and resuspended in fresh medium plus 1% dimethylsulfoxide. The aggregates are then plated onto multi-well untreated culture grade dishes without trypsin treatment. One aggregate is plated per well. The aggregates are cultured for 5 days. Upon culturing of the cells in multi-well dishes, cell cultures in which greater than 80% of the aggregates contain contracting muscle cells are obtained. Such cells may be used to treat cardiomyopathies, myocardial infarction, congestive heart failure, or muscular dystrophy.

[2] = tested on: D3 and E14 TG2a embryonic stem cell lines transfected with mouse MyoD cDNA; assay: Differentiation of MyoD-transfected embryonic stem cell lines into muscle after dimethylsulfoxide induction
Description: For transfection of embryonic stem cells with mouse MyoD cDNA, both the D3 (ATCC catalog no. CRL 1934) and E14 TG2a (ATCC catalog no. CRL 1821) embryonic stem cell lines were used. Embryonic stem cells were cultured as described in Robertson, 1987, except that the cells were maintained in media containing 5 ng/ml human recombinant leukemia inhibitory factor instead of on feeder layers.
Embryonic stem cells were co-transfected with pKJ1-Neo (Dinsmore, et al., Cell, Vol. 64, pgs. 817-826 (1991)), which carries the neomycin resistance gene for selection of stable transfectants, and with pEMCII (Davis, et al., Cell, Vol. 51, pgs. 987-1000 (1987)), which contains a portion of the mouse MyoD cDNA. pKJ1-Neo was linearized at the unique NsiI site and pEMCII was linearized at the unique ScaI site. In order to introduce the linearized plasmids into the embryonic stem cells, the embryonic stem cells were electroporated using a Gene Pulser (Bio Rad) in 0.4 cm gap distance electroporation cuvettes with the Gene Pulser set at 240 volts, 500μ Farads. […]
Stable transfectants were isolated, expanded, frozen, and then stored in liquid nitrogen. […] The percentage of cells that differentiated into skeletal muscle was greater than 90% as assessed by staining for muscle specific myosin, and by the ability of these cells to fuse and form myotubes that spontaneously twitch. […]

[3] = tested on: embryonic stem cells (ES-E14TG2a); assay: Differentiation of embryonic stem cells into neuronal cells by retinoic acid induction; details: 0.5 μM retinoic acid, aggregates induced four days in DMEM plus 10% FBS, then cultured 5 days in stem cell medium on poly-D-lysine
Description: Undifferentiated embryonic stem cells (ES-E14TG2a, purchased from the American Type Culture Collection, catalog no. ATCC CRL 1821) are maintained in Dulbecco's modified Minimal Essential Medium (DMEM) supplemented with glutamine, β-mercaptoethanol, 10% (by volume) horse serum, and human recombinant Leukemia Inhibitory Factor (LIF). The LIF replaces the need for maintaining embryonic stem cells on feeder layers of cells, and is essential for maintaining embryonic stem cells in an undifferentiated state.
In order to promote the differentiation of the embryonic stem cells into neuronal cells, the embryonic stem cells are trypsinized and washed free of LIF, and placed in DMEM supplemented with 10% (by volume) fetal bovine serum (FBS). After resuspension in DMEM and 10% FBS, 1×10^6 cells are plated in 5 ml DMEM plus 10% FBS plus 0.5 μM retinoic acid in a 60 mm Fisher brand bacteriological grade Petri dish. In such Petri dishes, embryonic stem cells cannot adhere to the dish, and instead adhere to each other, thus forming small aggregates of cells. Aggregation of cells aids in enabling proper cell differentiation. After two days, aggregates of cells are collected and resuspended in fresh DMEM plus 10% FBS plus 0.5 μM retinoic acid, and replated in Petri dishes for an additional two days. […]

Structure (SMILES)	percentage of aggregates that contain contracting muscle cells [1]	cell types obtained after induction ([2]; MyoD transformants expressing very low amounts of MyoD, indistinguishable from non-transfected embryonic stem cells)	percentage of cells that differentiated into skeletal muscle ([2]; cell lines expressing high amounts of MyoD, staining for muscle specific myosin, fusion into twitching myotubes)	percentage of cells in the culture that are neuronal cells [3]
C[S+](C)[O-] [dimethylsulfoxide]	greater than 80%	mix of cardiac, smooth, and skeletal muscle	greater than 90%	–
CC1=C(/C=C/C(C)=C/C=C/C(C)=C/C(=O)O)C(C)(C)CCC1 [retinoic acid]	–	–	–	greater than 90%

Source: US6432711B1, “Embryonic stem cells capable of differentiating into desired cell lines” (Diacrin, Inc., priority 1993, dated 2002)
